According to PubChem BioAssay (NCI):
Values joined by “and” are separate entries in the source; they are usually repeats but may differ in a detail not shown here. Identical values can stand only once.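 The compound was tested at five concentrations on cells cultured in 96-well plates, with a 48-hour exposure period. GI50 = concentration required for 50% inhibition of growth. The concentration for full growth arrest is given as TGI.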

Experiments:
Experiment in all cases: NCI-60 cell line screen, 48 h
RPMI-8226 leukemia = test system: RPMI-8226 leukemia
HL-60(TB) leukemia = test system: HL-60(TB) leukemia
OVCAR-5 ovarian = test system: OVCAR-5 ovarian
DU-145 prostate = test system: DU-145 prostate
COLO 205 colon = test system: COLO 205 colon
HT29 colon = test system: HT29 colon
LOX IMVI melanoma = test system: LOX IMVI melanoma
NCI-H460 lung = test system: NCI-H460 lung
MALME-3M melanoma = test system: MALME-3M melanoma
NCI-H226 lung = test system: NCI-H226 lung

Row | Structure (SMILES) | TGI (RPMI-8226 leukemia) | TGI (HL-60(TB) leukemia) [µM] | TGI (OVCAR-5 ovarian) | TGI (DU-145 prostate) [µM] | TGI (COLO 205 colon) [µM] | TGI (HT29 colon) [µM] | TGI (LOX IMVI melanoma) | TGI (NCI-H460 lung) | TGI (MALME-3M melanoma) | TGI (NCI-H226 lung) | GI50 (HL-60(TB) leukemia) [µM] | GI50 (OVCAR-5 ovarian) [µM] | GI50 (COLO 205 colon) [µM] | GI50 (HT29 colon) [µM] | GI50 (LOX IMVI melanoma) [µM] | GI50 (NCI-H460 lung) [µM] | GI50 (MALME-3M melanoma) [µM] | GI50 (NCI-H226 lung) [µM]
1 | Cc1ccc(S(=O)(=O)N/N=C2/CCC(C(C)(C)C)CC2Br)cc1 (stereo not drawn) | 82.3 µM | > 100 | 43.6 µM | > 100 | > 100 | 88.9 | 30.5 µM | > 100 µM | 31.2 µM | 34 µM | – | – | – | – | – | – | – | –
2 | COCC12CCC(OC)C34C5CC6(O)C(OC)CC(OC(C)=O)(C5C6OC(=O)c5ccccc5)C(C(OC)C13)C4N(C)C2 (stereo not drawn) | > 100 µM | > 100 | > 100 µM | > 100 | > 100 | > 100 | > 100 µM | > 100 µM | > 100 µM | > 100 µM | – | – | – | – | – | – | – | –
3 | COc1ccc(C2SCC(=O)N2NC(=O)C(C)Oc2ccccc2C)cc1 (stereo not drawn) | > 100 µM | 61.2 | > 100 µM | > 100 | > 100 | > 100 | > 100 µM | > 100 µM | > 100 µM | > 100 µM | – | – | – | – | – | – | – | –
4 | CC12ON(P(=O)(c3ccccc3)c3ccccc3)C(C)(c3ccccc31)c1ccccc12 | > 100 µM | > 100 | > 100 µM | > 100 | > 100 | > 100 | > 100 µM | > 100 µM | > 100 µM | > 100 µM | – | – | – | – | – | – | – | –
5 | COc1cc(CCN(C)C)cc(OC)c1OC | > 100 µM | > 100 | > 100 µM | > 100 | > 100 | > 100 | > 100 µM | > 100 µM | – | > 100 µM | – | – | – | – | – | – | – | –
6 | COc1cc(OC2OC(COC(=O)c3cc(O)c(O)c(O)c3)C(O)C(O)C2O)ccc1O (stereo not drawn) | > 100 µM | > 100 | > 100 µM | > 100 | > 100 | > 100 | > 100 µM | > 100 µM | > 100 µM | > 100 µM | – | – | – | – | – | – | – | –
7 | CCOC(=O)C(=O)CC(=O)C1=C(c2ccccc2OC)CC(c2cccs2)=CC1=O | > 100 µM | > 100 | > 100 µM | > 100 | > 100 | > 100 | > 100 µM | > 100 µM | > 100 µM | > 100 µM | – | – | – | – | – | – | – | –
8 | CC(=O)N(C(C)=O)n1c(Cc2ccc(C)cc2)nn(C(C)=O)c1=O | > 100 µM | > 100 | > 100 µM | > 100 | > 100 | > 100 | > 100 µM | > 100 µM | > 100 µM | > 100 µM | – | – | – | – | – | – | – | –
9 | CCN(CC)CCOC(=O)Cc1cccc2c(=O)cc(-c3ccccc3)oc12 | 51 µM and > 224 µM | 44.6 | 62.5 µM and > 197 µM | 54.6 | – | – | 35.1 µM and > 240 µM | 62.5 µM and > 111 µM | 62.5 µM and 165 µM | 62.5 µM and > 129 µM | 3.86 | 137 | 439 | 530 | 45.3 | 36.4 | 64.7 | 50.7
10 | NC(=Nc1ccccc1)c1ccccc1N | > 100 µM | > 100 | > 100 µM | > 100 | > 100 | > 100 | > 100 µM | > 100 µM | – | > 100 µM | – | – | – | – | – | – | – | –
11 | COC1(c2cccs2)c2ccccc2C(OC)(c2cccs2)c2ccccc21 (stereo not drawn) | > 100 µM | > 100 | > 100 µM | > 100 | > 100 | > 100 | > 100 µM | > 100 µM | > 100 µM | > 100 µM | – | – | – | – | – | – | – | –
12 | O=C1CS[C@@](CC(c2ccc(Cl)cc2)c2ccc(Cl)cc2)(c2ccc(Cl)cc2)N1 | 35.6 µM | 28.4 | > 100 µM | > 100 | 17.9 | > 100 | 65.4 µM | > 100 µM | 82.6 µM | 42.2 µM | – | – | – | – | – | – | – | –
13 | O=[N+]([O-])c1cccc(Cl)c1Oc1ccc(S(=O)(=O)/N=C(\NO)Nc2ccc(Cl)cc2)cc1 | 27.8 µM | 16.5 | 32.8 µM | 30 | 31 | 30.8 | 32.7 µM | 29.3 µM | 31.2 µM | 44.4 µM | – | – | – | – | – | – | – | –
14 | CCOC(=O)c1[nH]c2cccc3c2c1CC[C@H](NC(=O)C(F)(F)F)C3=O | > 100 µM | > 100 | > 100 µM | > 100 | > 100 | > 100 | > 100 µM | > 100 µM | > 100 µM | > 100 µM | – | – | – | – | – | – | – | –
15 | COC1=C2C=[N+](C)C3C(=C2C=CC1OC)Cc1cc2c(cc13)OCO2 (stereo not drawn) | 27.1 µM | 15.7 | 32.1 µM | 27.5 | 18.4 | 26.3 | 39.6 µM | – | 18.8 µM | 38.4 µM | – | – | – | – | – | – | – | –
